We go through ten molecules from US20060270862A1, “Analogs of discodermolide and dictyostatin-1, intermediates therefor and methods of synthesis thereof” (priority 2002, published 2006).

Read-outs that look alike come from different tables or passages of the source.

The conditions of series [1]: ester bond, 2,4,6-trichlorobenzoyl chloride / Et3N / DMAP, toluene, 25.0 °C, 16.0 h.
The test system of another series is MDA-MB231 (breast). Kind of series: Cell growth inhibition (MTS), MDA-MB231. Format: cell-based, human. The settings on record: for GI50: read-out: GI50 MDA-MB-231 (breast). The procedure: (§1) Cell Growth Inhibition[34] Cells were plated (500-2000 cells/well depending on the cell line) in 96-well microplates, allowed to attach and grow for 48 h, then treated with vehicle (4% DMSO, a concentration that allowed doubling times of 24 h or less) or test agent (50, 10, 2, 0.4 and 0.08 μM for the new agents; 0.001, 0.005, 0.010, 0.020 and 0.100 μM for paclitaxel and discodermolide) for the given times. One plate consisted of cells from each line used for a time zero cell number determination. The other plates in a given determination contained eight wells of control cells, eight wells of medium and each agent concentration tested in quadruplicate. Cell numbers were obtained spectrophotometrically (absorbance at 490 nm minus that at 630 nm) in a Dynamax plate reader after treatment with 3-(4,5-dimethylthiazol-2-yl)-5-(3-carboxymethoxyphenyl)-2-(4-sulfophenyl)-2H-tetrazolium (MTS) using phenazine methanesulfonate as the electron acceptor. After initial screening with the above 5-fold dilutions, fifty percent growth inhibitory concentration (GI50) values were determined for each agent by repeating the screen using 2-fold dilutions (five concentrations) centered on the initial estimated GI50 concentration, again in quadruplicate.

The subject of series [2] is paclitaxel binding site on tubulin. Kind of series: Paclitaxel binding site inhibition assay ([3H]paclitaxel displacement from microtubules). The arrangement: species or system bovine. The settings on record: for Displacement of [3H]paclitaxel (%): 4 μM test agent, 2 μM [3H]paclitaxel, microtubules from 2 μM tubulin and 20 μM dideoxyGTP. The procedure: (§2) General. Tubulin without microtubule-associated proteins was prepared from fresh bovine brains[32] The normoisotopic and tritiated forms of paclitaxel and normoisotopic docetaxel were provided by the Drug Synthesis and Chemistry Branch, National Cancer Institute. (+)-Discodermolide was from Novartis Pharmaceutical Corporation. Ca^2+- and Mg^2+-free RPMI-1640 culture medium were from GIBCO/BRL-Life Technologies. Fetal bovine serum (FBS) was from Hyclone. Cell lines were obtained from American Type Culture Collection (Manassas, Va.).
Paclitaxel binding site inhibition assay. A stock solution of [^3H]paclitaxel (26.8 μM, 16.2 Ci/mmol), obtained from the NCI, was prepared in 37% (v/v) DMSO. The test agents were prepared in 25% (v/v) DMSO-0.75 M monosodium glutamate (prepared from a 2M stock solution adjusted to pH 6.6 with HCl). The radiolabeled paclitaxel and test agents, as indicated in terms of final concentrations, were mixed in equal volumes and warmed to 37° C. A reaction mixture (50 μL) containing 0.75 M monosodium glutamate, 4.0 μM tubulin, and 40 μM ddGTP (a non-hydrolyzable analog of GTP) was prepared and incubated at 37° C. for 30 min to preform microtubules. An equivalent volume of drug mixture with [^3H]paclitaxel was added to preformed polymer and incubated for 30 min at 37° C. Bound [^3H]paclitaxel was separated from free drug by centrifugation of the reaction mixtures at 14000 rpm for 20 min at room temperature. Non-specific binding was determined by addition of a 12-fold excess of docetaxel. Radioactive counts from the supernatant (50 μL) were determined by scintillation spectrometry. Bound [^3H]paclitaxel was calculated from the following: total paclitaxel added to each reaction mixture minus the paclitaxel present in the supernatant (free drug). The % bound values were normalized to the control values with no inhibitor added.

A further series deals with tubulin. Format: biochemical, bovine. The settings on record: for properties of the induced polymer: speed of induction, resistance to cold-induced disassembly (in words): FIGS. 6A, 6C, 6D, analogs at somewhat lower potencies than discodermolide; for microtubule hypernucleation activity (in words): comparison with analog 40, FIGS. 6A-D and Table 1; for MT stabilizing activity (%): tubulin assembly induced by test agent at 10 μM vs. 10 μM paclitaxel (100%), single determinations at 30° C. The procedure: as §2
Tubulin Polymerization[32] Tubulin assembly was followed in a Beckman-Coulter 7400 spectrophotometer, equipped with an electronic Peltier temperature controller, reading absorbance (turbidity) at 350 nm. Reaction mixtures (0.25 mL final volume) contained tubulin (final concentration 10 μM; 1 mg/mL), monosodium glutamate (0.8 M from a stock solution adjusted to pH 6.6 with HCl), DMSO (final volume 4% v/v), and differing concentrations of test agent where indicated. Reaction mixtures without test agent were cooled to 0° C. and added to cuvettes held at 0.25-0.5° C. in the spectrophotometer. Test agent in DMSO was then rapidly mixed in the reaction mixture. Each run contained one positive control (paclitaxel, 10 μM final concentration) and one negative control (DMSO only). Baselines were established at 0.25-2.5° C. and temperature was rapidly raised to 30° C. (in approximately 1 min) and held there for 20 min.

The test system of a further series is 2008 (ovarian). Briefly: Cell growth inhibition (MTS), 2008. It counts as cell-based, human. The settings on record: read-out: GI50 2008 (ovary). The procedure: as §1
Setting [3] is: Homo sapiens, MDA-MB-231, read-out: 50% growth inhibitory concentration.
Setting [4] is: Table 2, applies to both human cancer cell lines, breast (MDA-MB-231) and ovarian (2008), read-out: 50% growth inhibitory concentration.
[5] abbreviates: 72 hours continuous exposure (footnote b), mean ± SD, N = 4.

As to `C=C/C=C\[C@H](C)[C@@H]1OC(=O)/C=C\C=C\[C@@H](C)[C@@H](O[Si](C)(C)C(C)(C)C)C[C@H](O[Si](C)(C)C(C)(C)C)/C=C\[C@H](C)[C@H](O)[C@@H](C)C[C@@H](C)CCC(O[Si](C)(C)C(C)(C)C)[C@@H]1C` (some centres unmarked), the ring closure, yield of all isomers in series [1] (from C=C/C=C\[C@H](C)[C@H](O)[C@@H](C)C(CC[C@H](C)C[C@H](C)[C@@H](O)[C@@H](C)/C=C\[C@H](C[C@H](O[Si](C)(C)C(C)(C)C)[C@H](C)/C=C/C=C\C(=O)O)O[Si](C)(C)C(C)(C)C)O[Si](C)(C)C(C)(C)C, 1.77 mM, 2 steps) is 49%.

Regarding `C=C/C=C\[C@H](C)[C@H]1OC(=O)/C=C\C=C\[C@@H](C)[C@H](OCc2ccc(OC)cc2)CC/C=C\[C@H](C)[C@H](OCc2ccc(OC)cc2)[C@@H](C)/C=C\CC[C@@H](OCc2ccc(OC)cc2)[C@H]1C`, the ring closure, yield of all isomers in series [1] (from C=C/C=C\[C@H](C)[C@@H](O)[C@H](C)[C@@H](CC/C=C\[C@H](C)[C@@H](OCc1ccc(OC)cc1)[C@@H](C)/C=C\CC[C@@H](OCc1ccc(OC)cc1)[C@H](C)/C=C/C=C\C(=O)O)OCc1ccc(OC)cc1, 2 steps) came to 79%.

For `C=C/C=C\[C@H](C)[C@H]1OC(=O)CCCCCCCC/C=C\[C@H](C)[C@H](OCc2ccc(OC)cc2)[C@@H](C)/C=C\CC[C@@H](OCc2ccc(OC)cc2)[C@H]1C`, in series [1] (from C=C/C=C\[C@H](C)[C@@H](O)[C@H](C)[C@@H](CC/C=C\[C@H](C)[C@@H](OCc1ccc(OC)cc1)[C@@H](C)/C=C\CCCCCCCCC(=O)O)OCc1ccc(OC)cc1, 1.93 mM), the ring closure, yield of all isomers was found to be 57%.

Take `C=C/C=C\[C@H](C)[C@H](OC(N)=O)[C@@H](C)[C@H](O)CC/C=C\[C@H](C)[C@H](O)[C@@H](C)/C=C\CC[C@@H]1OC(=O)[C@H](C)[C@@H](OCOC)[C@H]1C` [Compound 41]: the “50% growth inhibitory (GI50) concentration (in words)” value in the series on MDA-MB231 (breast) (cellular activity, cell line not given) is given as “submicromolar”. In series [2], the “affinity for the paclitaxel binding site on tubulin (in words)” value was “considerable affinity” and the “Displacement of [3H]paclitaxel (%)” value was 57 ± 2%. The “displacement of [3H]paclitaxel from microtubules, comparison (in words)” value in series [2] (2-fold molar excess of test agent) was “better than paclitaxel and at almost the same potency as discodermolide”. Moreover, in the series with tubulin, the “properties of the induced polymer: speed of induction, resistance to cold-induced disassembly (in words)” value was “more rapid polymer-inducing and cold-resistant properties”; the “microtubule hypernucleation activity (in words)” value is recorded as “better microtubule hypernucleation activities than the analog 40”; the “MT stabilizing activity (%)” value is reported as 27%.

For the molecule `C=C/C=C\[C@H](C)[C@H](OC(N)=O)[C@@H](C)[C@H](O)CC/C=C\[C@H](C)[C@H](O)[C@@H](C)/C=C\CC[C@@H]1O[C@@H](OC)[C@H](C)[C@@H](OCOC)[C@H]1C` [Compound 42, Carbamic acid, (1S,2S,3R,6Z,8S,9S,1S,11Z)-3,9-dihydroxy-14-[(2S,3S,4S,5R,6R)-6-methoxy-4-methoxymethoxy-3,5-dimethyltetrahydropyran-2-yl]-2,8,10-trimethyl-1-[(1S,2Z)-1-methylpenta-2,4-dienyl]tetradeca-6,11-dienyl ester], in series [2], the “Displacement of [3H]paclitaxel (%)” value was 19 ± 2%. For the same molecule, in the series with tubulin, the “properties of the induced polymer: speed of induction, resistance to cold-induced disassembly (in words)” value was “more rapid polymer-inducing and cold-resistant properties”; the “microtubule hypernucleation activity (in words)” value is on record as “better microtubule hypernucleation activities than the analog 40”; the “MT stabilizing activity (%)” value came to 11%.

Take `C=CC=C[C@H](C)[C@H]1OC(=O)CCCCCCCCC=C[C@H](C)[C@H](O)[C@@H](C)C=CCC[C@@H](O)[C@H]1C` [Compound 43, (1S,13S,14S,15S,20R,21R,22R)-14,20-Dihydroxy-13,15,21-trimethyl-22-(1-methylpenta-2,4-dienyl)-oxacyclodocosa-11,16-dien-2-one]: the GI50 – broadly, the concentration at which growth is held to half of that of the control – in the series with MDA-MB231 (breast) (Homo sapiens, MDA-MB-231, 48 h) was 27 ± 1 µM; with 2008 (ovarian) (Homo sapiens, 48 h), 16 ± 1 µM. For the same molecule, in the series on MDA-MB231 (breast) (setting [3]), the IC50 was in the range of 15 to 30 µM. Further, in series [2] (N = 6, means ± SD), the “Displacement of [3H]paclitaxel (%)” value came to 18 ± 5%.

`C=CC=C[C@H](C)[C@@H](O)[C@H](C)[C@H](O)CCC=C[C@H](C)[C@@H](O)[C@@H](C)C=CCCCCCCCCCO` [Compound 47, (12S,13S,14S,19R,20R,21R,22S)-12,14,20,22-Tetramethylhexacosa-10,15,23,25-tetraene-1,13,19,21-tetraol]: the GI50 in the series on MDA-MB231 (breast) (Homo sapiens, MDA-MB-231, 48 h) was determined as 18 ± 1 µM; with 2008 (ovarian) (Homo sapiens, 48 h) it was 22 ± 5 µM. For the same molecule, the IC50 with MDA-MB231 (breast) (setting [3]) is 15 to 30 µM. The “Displacement of [3H]paclitaxel (%)” value in series [2] (N = 6, means ± SD) came to 21 ± 2%.

Turning to `C=CC=C[C@H](C)[C@@H](O)[C@H](C)[C@H](O)CCC=C[C@H](C)[C@@H](O)[C@@H](C)C=CCCCCCCCCC(=O)OC` [Compound 48, (12S,13S,14S,19R,20R,21R,22S)-13,19,21-Trihydroxy-12,14,20,22-tetramethylhexacosa-10,15,23,25-tetraenoic acid methyl ester], the GI50 came to 26 ± 3 µM in the series on MDA-MB231 (breast) (Homo sapiens, MDA-MB-231, 48 h) and 19 ± 2 µM in the series with 2008 (ovarian) (Homo sapiens, 48 h). The IC50 with MDA-MB231 (breast) (setting [3]) is 15 to 30 µM. Further, in series [2] (N = 6, means ± SD), the “Displacement of [3H]paclitaxel (%)” value was 17 ± 1%.

`C=CC=C[C@H](C)[C@@H](O)[C@H](C)[C@H](O)CCC=C[C@H](C)[C@@H](O)[C@@H](C)C=CCCCCCCCCC(=O)O` [Compound 49, (12S,13S,14S,19R,20R,21R,22S)-13,19,21-Trihydroxy-12,14,20,22-tetramethylhexacosa-10,15,23,25-tetraenoic acid]: the GI50 in the series on MDA-MB231 (breast) (Homo sapiens, MDA-MB-231, 48 hours continuous exposure, mean ± SD, N = 4) was over 50 µM; with 2008 (ovarian) (Homo sapiens, 48 hours continuous exposure, mean ± SD, N = 4), over 50 µM. Moreover, the IC50 with MDA-MB231 (breast) (setting [4]) was over 50 µM. Moreover, the “Displacement of [3H]paclitaxel (%)” value in series [2] (N = 6, means ± SD) is on record as 16 ± 3%.

Take `C=CC=CC(C)[C@H]1OC(=O)C=CC=C[C@@H](C)[C@H](O)CCC=C[C@H](C)[C@H](O)[C@@H](C)C=CCC[C@@H](O)[C@H]1C` (stereo partly drawn) [Compound 54, (7R,8R,13S,14S,15S,20R,21R,22R,23S)-8,14,20-Trihydroxy-7,13,15,21-tetramethyl-22-(1-methylpenta-2,4-dienyl)-oxacyclodocosa-3,5,11,16-tetraen-2-one]: the GI50 is 1.4 ± 0.1 µM in the series on MDA-MB231 (breast) (setting [5]) and 1 ± 0.1 µM in the series with 2008 (ovarian) (setting [5]). Also, in the series with MDA-MB231 (breast) (setting [4]), the IC50 was about 1 µM. In series [2] (N = 6, means ± SD), the “Displacement of [3H]paclitaxel (%)” value was determined as 27 ± 8%. For the same molecule, in series [2] ([3H]paclitaxel stoichiometrically bound to microtubules), the “potency of [3H]paclitaxel displacement relative to discodermolide” value was “about ⅓”.
